“Also recorded” adds a separate entry of the source. Like-named read-outs stand apart in the source and are kept apart here.
What was measured:
p21 mRNA = assay: p53 pathway activation, non-clinical pharmacology; details: direct transcriptional target of p53
Text: (§1) Preclinical studies conducted with navtemadlin have yielded promising results in in vitro, ex vivo, and in vivo experiments, representing solid tumors and hematologic malignancies, including MF and acute myeloid leukemia secondary to an MPN.

p21 = p21 expression in MF patient cells; assay type: cell-based, human; details: single agent alone
[1] = Standard panel of assays: mutagenicity, genotoxicity, phototoxicity
Text: Repeat-dose toxicity studies of up to 13 weeks duration in rats and monkeys, along with in vitro and in vivo safety pharmacology studies, have been completed for navtemadlin. […] Nonclinical embryofetal toxicity and fertility studies have not been conducted for navtemadlin due to the well documented requirement for p53/MDM2 control during embryonic and fetal development. Based on its mechanism of action, navtemadlin alters cell proliferation and is expected to result in adverse effects on embryofetal viability and development.

[2] = system: subjects with MF who were relapsed or refractory to JAK inhibitor treatment; assay: KRT-232-101A Phase 2 open-label dose-finding study, navtemadlin monotherapy; assay type: in vivo, human; details: for TSS50 at Week 24 by MFSAF v4.0 (proportion of subjects) / SVR35 at Week 24 by Central Review (proportion of subjects): Rux-relapsed/refractory MF; for TSS50 at Week 24 by MFSAF v4.0 (proportion of subjects): n = 14; for SVR35 at Week 24 by Central Review (proportion of subjects): n = 14 with ruxolitinib washout ≥28 days; for circulating CD34+ cells: single agent
Description: KRT-232-101A is a Phase 2 open-label, dose-finding study designed to evaluate the safety and efficacy of navtemadlin in subjects with MF who were relapsed or refractory to JAK inhibitor treatment. Subjects were treated with one of four dosing schedules to determine the optimal Phase 2 dose and schedule: navtemadlin 120 mg QD for Days 1-7 on a […]; navtemadlin 240 mg QD for Days 1-7 on a 21-day cycle; navtemadlin 240 mg QD for Days 1-7 on a 28-day cycle; or navtemadlin 240 mg QD for Days 1-5 on a 28-day cycle.
Fourteen (14) of these subjects had ruxolitinib washout of ≥28 days prior to the baseline imaging assessment; efficacy results are reported for this subset of patients to control for the effects on the spleen after ruxolitinib discontinuation prior to Cycle 1 Day 1. Median treatment duration for all 32 subjects was 175.5 days (range, 2-469).

[3] = system: treatment-naïve patients with MF; assay: KRT-232-114 Phase 2 open-label study, navtemadlin monotherapy; assay type: in vivo, human; details: Rux-naïve MF, 240 mg Days 1-7 of 28-day cycle
Description: KRT-232-114 was a Phase 2 open-label study in which the safety and efficacy of navtemadlin monotherapy was assessed in treatment-naïve patients with MF. […] Median treatment duration was 183.0 days (range, 7-539).

[4] = system: xenograft models, tumor types harboring TP53WT; assay: Non-clinical xenograft models; assay type: in vivo; details: various genetic backgrounds
Text: as §1

[5] = system: patients who discontinue ruxolitinib; details: after discontinuing ruxolitinib; 95% CI 8.0-22.7; cited from earlier work
[6] = system: JAKi-naive MF patients with a suboptimal response to ruxolitinib; assay: Pooled published phase 3 data, suboptimal responders to ruxolitinib; assay type: in vivo, human
Text: Data was pooled from published phase 3 studies for patients treated with ruxolitinib in the JAKi-naive MF setting (Verstovsek 2012; Mesa 2017; Pemmaraju 2023; Rampal 2023) to understand the natural history of patients with MF who achieve a suboptimal response to ruxolitinib, as defined in Study KRT-232-115 (e.g., a subject with an SVR>0% but <35% and a TSS reduction >0% but <50%) (FIG. 12).
FIG. 12 illustrates suboptimal spleen and symptom responders from the pooled phase 3 ruxolitinib data, including patients treated with ruxolitinib monotherapy with and without placebo. SVR data was obtained for 465 subjects from the three studies COMFORT-1, […]-1, and TRANSFORM-1 (Verstovsek 2012; Mesa 2017; Pemmaraju 2023). TSS data was obtained for 528 subjects from the three studies. Week-24 data used as a proxy to Week-18 suboptimal response assessment.

[7] = system: ruxolitinib-treated patients with myelofibrosis; details: cited from earlier work
MF patients = details: cited from earlier work
[8] = KRT-232-101A, 240 mg Days 1-7 of 28-day cycle
[9] = KRT-232-101A, 240 mg Days 1-7 of 28-day cycle, listed as Navtemadlin
[10] = within the first 1-2 years of treatment

SMILES: CC(C)[C@@H](CS(=O)(=O)C(C)C)N1C(=O)[C@@](C)(CC(=O)O)C[C@H](c2cccc(Cl)c2)[C@H]1c1ccc(Cl)cc1 [navtemadlin, 2-((3R,5R,6S)-5-(3-chlorophenyl)-6-(4-chlorophenyl)-1-((S)-1-(isopropylsulfonyl)-3-methylbutan-2-yl)-3-methyl-2-oxopiperidin-3-yl) acetic acid]
- p21 mRNA (p21 mRNA): increases
- p21 expression (p21): markedly increased
- mutagenicity / genotoxicity [1]: not mutagenic or genotoxic
- potential for phototoxicity [1]: negligible potential
- TSS50 at Week 24 by MFSAF v4.0 (proportion of subjects) [2, 8]: 14.3%
- TSS50 at Week 24 by MFSAF v4.0 (proportion of subjects) [2, 9]: 14.3% (2/14)
- SVR35 at Week 24 by Central Review (proportion of subjects) [2, 8]: 14.3%
- SVR35 at Week 24 by Central Review (proportion of subjects) [2, 9]: 14.3% (2/14)
- median reduction in circulating CD34+ cells ([2]; baseline Cycle 1 Day 1 to Week 24, 240 mg Days 1-7 of 28-day cycle): 89.02%
- subjects with improvement in fibrosis grade ([2]; baseline to Week 24, all evaluable subjects (12/44)): 27.3%
- driver gene VAF ([2]; pharmacodynamic analysis, KRT-232-101A): VAF reductions
- circulating CD34+ cells ([2]; KRT-232-101A): robustly decreased; also recorded: reduced
- circulating CD34+ cells ([2]; KRT-232-101A, listed as Navtemadlin): decreased
- SVR35 at Week 24 by Central Review (proportion of subjects) ([3]; n = 14): 14.3%
- TSS50 at Week 24 by MFSAF v4.0 (proportion of subjects) ([3]; n = 14): 28.6%
- SVR35 at Week 24 by Central Review (proportion of subjects) ([3]; n = 14, listed as Navtemadlin): 14.3% (2/14)
- TSS50 at Week 24 by MFSAF v4.0 (proportion of subjects) ([3]; n = 14, listed as Navtemadlin): 28.6% (4/14)
- tumor growth [4]: dose-dependent reduction

SMILES: N#CC[C@H](C1CCCC1)n1cc(-c2ncnc3[nH]ccc23)cn1 [ruxolitinib, (R)-3-(4-(7H-pyrrolo[2,3-d]pyrimidin-4-yl)-1H-pyrazol-1-yl)-3-cyclopentylpropanenitrile]
- median OS [5]: 13.2 months
- mean SVR ([6]; suboptimal spleen responders, N=253, Week-24 data as proxy for Week 18): 18%
- mean TSS reduction ([6]; suboptimal symptom responders (>0% but <50%)): 28.5%
- hazard ratio for survival ([7]; patients with SVR≥25% to <35% versus SVR<10%, 95% CI 0.11-0.61): 0.25
- reduction in risk of death ([7]; patients with SVR≥25% to <35% versus SVR<10%): 75%
- hazard ratio for survival ([7]; patients with SVR≥35% to <50%, 95% CI 0.11-0.56): 0.24
- p21 expression (p21): did not
- time after initiating treatment by which benefit in SVR and TSS reduction is achieved, then plateau (MF patients; Verstovsek 2012): ≤ 12 weeks
- MF patients with TSS reduction of greater than or equal to 50% (MF patients; ruxolitinib monotherapy): approximately 46%
- responding patients achieving both SVR ≥35% and TSS ≥50% (MF patients; ruxolitinib monotherapy): 20-25%
- effect on bone marrow fibrosis (MF patients; [10]): does not significantly affect
- effect on variant allele frequency (VAF) of driver mutations (MF patients; [10]): does not significantly affect

— US20260263471A1, “Methods of Treating Myelofibrosis” (Kartos Therapeutics, Inc., priority 2024, published 2026)
